ChEMBL document CHEMBL5360669, “Novel Pyrazoloquinoline Compounds as KRAS Inhibitors for Treating Cancer” (ACS Med Chem Lett, 2023)

How the values were obtained:
[1] = target: T1, GTPase KRas (Homo sapiens, UniProt P01116, G12C); experiment: Inhibition of KRAS G12C mutant (unknown origin) by measuring exchange of bodipy-GDP for GppNHp incubated for 2 hrs
[2] = target: T1, GTPase KRas; experiment: Inhibition of KRAS G12C mutant (unknown origin) incubated for 2 hrs
[3] = Inhibition of KRAS G12C WB mutant (unknown origin) incubated for 2 hrs; set-up: species or system Homo sapiens

T1 sequence (P01116 whole entry G12C): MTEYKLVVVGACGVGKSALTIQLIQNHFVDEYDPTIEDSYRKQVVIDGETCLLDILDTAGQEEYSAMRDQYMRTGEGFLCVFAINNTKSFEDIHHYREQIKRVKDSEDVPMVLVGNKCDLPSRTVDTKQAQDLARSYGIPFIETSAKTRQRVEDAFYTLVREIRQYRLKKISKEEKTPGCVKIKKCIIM

SMILES	IC50 [1] [nM]	IC50 [2] [nM]	IC50 [3] [nM]
C=C(F)C(=O)N1CC[C@H](n2ncc3c(O[C@@H](C)[C@@H]4CCCN4C)nc4c(F)c(-c5nccc6cccc(C#N)c56)c(Cl)cc4c32)C[C@H]1CC#N	≤ 100	≤ 100	≤ 100
COC/C=C/C(=O)N1CC[C@H](n2ncc3c(O[C@@H](C)[C@@H]4CCCN4C)nc4c(F)c(-c5nccc6cccc(C#N)c56)c(Cl)cc4c32)C[C@H]1CC#N	≤ 100	≤ 100	≤ 100
COC/C=C/C(=O)N1CC[C@H](n2ncc3c(O[C@@H](C)[C@@H]4CCCN4C)nc4c(F)c(-c5cccc6cccc(C#N)c56)c(Cl)cc4c32)C[C@H]1CC#N	≤ 100	≤ 100	≤ 100
CC#CC(=O)N1CC[C@H](n2ncc3c(O[C@@H](C)[C@@H]4CCCN4C)nc4c(F)c(-c5cccc6cccc(C#N)c56)c(C)cc4c32)C[C@H]1CC#N	≤ 100	≤ 100	≤ 100

Now from value to compound:

IC50 [1] [nM]	IC50 [2] [nM]	IC50 [3] [nM]	SMILES
≤ 100	≤ 100	≤ 100	CC#CC(=O)N1CC[C@H](n2ncc3c(O[C@@H](C)[C@@H]4CCCN4C)nc4c(F)c(-c5nccc6cccc(C#N)c56)c(Cl)cc4c32)C[C@H]1CC#N
≤ 100	≤ 100	≤ 100	C=C(F)C(=O)N1CC[C@H](n2ncc3c(N4CC(N(C)CC)C4)nc4c(F)c(-c5c(C)c(C)cc6[nH]ncc56)c(Cl)cc4c32)C[C@H]1CC#N
